# Reference: patent US11066455B2, “Tmem100 peptides and variants thereof and their use in treating or preventing diseases or conditions” (The Johns Hopkins University, priority 2014, dated 2021)
# Entries after “also recorded” stand apart in the source; their conditions may differ. * marks the point of attachment. Palmitoyl = CCCCCCCCCCCCCCCC(=O)*
# B1: Tmem100 (wild-type, full-length, mouse) (other)
# chain: MTEESTKENLGAPKSPTPVTMEKNPKREVVVTTGPLVSEVQLMAATGGAELSCYRCIIPFAVVVFITGIVVTAVAYSFNSHGSIISIFGLVLLSSGLFLLASSALCWKVRQRNKKVKRRESQTALVVNQRCLFA
# notes: also called Pirt2; T100
# B2: TRPV1 (endogenous, mouse DRG) (receptor, UniProt Q704Y3 1-839, looked up)
# chain: MEKWASLDSDESEPPAQENSCPDPPDRDPNSKPPPAKPHIFATRSRTRLFGKGDSEEASPMDCPYEEGGLASCPIITVSSVVTLQRSVDGPTCLRQTSQDSVSTGVETPPRLYDRRSIFDAVAQSNCQELESLLSFLQKSKKRLTDSEFKDPETGKTCLLKAMLNLHNGQNDTIALLLDIARKTDSLKQFVNASYTDSYYKGQTALHIAIERRNMALVTLLVENGADVQAAANGDFFKKTKGRPGFYFGELPLSLAACTNQLAIVKFLLQNSWQPADISARDSVGNTVLHALVEVADNTADNTKFVTNMYNEILILGAKLHPTLKLEELTNKKGLTPLALAASSGKIGVLAYILQREIHEPECRHLSRKFTEWAYGPVHSSLYDLSCIDTCEKNSVLEVIAYSSSETPNRHDMLLVEPLNRLLQDKWDRFVKRIFYFNFFVYCLYMIIFTTAAYYRPVEGLPPYKLNNTVGDYFRVTGEILSVSGGVYFFFRGIQYFLQRRPSLKSLFVDSYSEILFFVQSLFMLVSVVLYFSHRKEYVASMVFSLAMGWTNMLYYTRGFQQMGIYAVMIEKMILRDLCRFMFVYLVFLFGFSTAVVTLIEDGKNNSLPVESPPHKCRGSACRPGNSYNSLYSTCLELFKFTIGMGDLEFTENYDFKAVFIILLLAYVILTYILLLNMLIALMGETVNKIAQESKNIWKLQRAITILDTEKSFLKCMRKAFRSGKLLQVGFTPDGKDDFRWCFRVDEVNWTTWNTNVGIINEDPGNCEGVKRTLSFSLRSGRVSGRNWKNFALVPLLRDASTRDRHSTQPEEVQLKHYTGSLKPEDAEVFKDSMAPGEK
# notes: whole, on cells
# What was measured:
# [1] = system: paclitaxel (Taxol)-induced mechanical hyperalgesia in wild-type mice; experiment: Paclitaxel-induced mechanical hyperalgesia; type: in vivo, mouse; conditions: F2 5 μl 100 μM intradermal injection
# Method: Mice were placed in a transparent plastic box (4.5×5×10 cm) on a metal mesh and acclimatized for 30 minutes prior to testing. Each mouse was tested more than 5 times at a specific force manually, and the threshold was determined by the lowest force needed to elicit responses more than 50% of the time.
# Mice were injected with paclitaxel (Sigma T7191) intraperitoneally at the dose of 6 mg/kg, as previously described (Materazzi et al., 2012). Seven days after paclitaxel injection, the mice were assayed with Von Frey methods for mechanical hyperalgesia, both before and four hours after injection of cell permeable peptides.
# [2] = system: SNL-induced mechanical hyperalgesia in wild-type mice; experiment: Spinal nerve ligation (SNL) in wild-type mice, mechanical hyperalgesia; type: in vivo, mouse; conditions: day 6 post ligation, 4 hrs post CPP; 5 μl of 2 mM intradermal in hindpaws
# Method: In the wild-type mice with spinal nerve ligation (SNL), mechanical hyperalgesia is observed 6 days post ligation. Palmitoylated (Pal) CPP tailored to the C-terminus of human Tmem100-3Q alleviates neuropathic pain/mechanical allodynia in SNL. n=6, *p<0.05 at Day 6 4 hrs post CPP treatment. Scrambled: open bar; human P2-Mut (T100-Mut): black bar (FIG. 17). Peptides (5 μl of 2 mM) were injected intradermally in the hindpaws. Sequences for CPP used in the SNL experiment:
# Human P2-Mut (T100-Mut) Pal-[…]-OH (SEQ ID NO: 7); Scrambled Pal-[…]-OH (SEQ ID NO: 19). Pal-palmitoylated in the N termini for each CPP.
# [3] = system: T1, TRPA1; experiment: Calcium imaging of HEK293T cells expressing TRPA1 and TRPV1 (MO or CA); type: cell-based; conditions: shortened CPP 2 μM; CA 10 μM; HEK293 TRPA1+TRPV1; vs scrambled
# T1 construct: percentage of cells responsive to CA; other: shortened CPP 2 μM; CA 10 μM; HEK293 TRPA1+TRPV1; vs scrambled; percentage of cells responsive to MO; other: peptide 200 nM pre-treatment; 500 nM MO; HEK293T TRPA1+TRPV1; percentage of cells that respond to 100 nM MO and 10 μM CA; other: HEK293T TRPA1+TRPV1, Tmem100-3Q-transfected vs lacki; reduction in the percentage of cells responding to MO
# [4] = system: neuropathic mechanical hypersensitivity in SNL rats; type: in vivo, rat; conditions: intrathecal 10 μl
# Source text: An modified L5 SNL model was produced as described in previously (He et al., 2014; Shechter et al., 2013). Male Sprague-Dawley rats (200-350 g, Harlan, Indianapolis, Ind.) were anesthetized with 2% isoflurane. The left L5 spinal nerve was ligated with a 6-0 silk suture and cut distally. The muscle layer was closed with 4-0 chromic gut suture and the skin closed with metal clips. For intrathecal catheter implantation, a small slit was cut in the atlanto-occipital membrane of rats, into which a saline-filled piece of PE-10 tubing (6-7 cm) was inserted (He et al., 2014). […] Hypersensitivity to punctuate mechanical stimulation was determined with the up-down method by using a series of von Frey filaments (0.38-15.1 g) applied for 4-6 seconds to the test area on the plantar surface of the hindpaw (Chaplan et al., 1994; He et al., 2014). The PWT was determined according to the formula provided by Dixon (Dixon, 1980). […] HC-030031 was purchased from Tocris Bioscience (Bristol, UK). Both drugs were dissolved in 10% dimethylsulfoxide (DMSO), 5% Tween 80 and 85% sterile saline solution. The final working solution which was injected by intrathecal route contained <1% DMSO. The number of animals used in each study was based on experience with similar studies and power analysis calculations. Animals were randomized to the different treatment groups and blinded the experimenter to drug treatment to reduce selection and observation bias. After the experiments were completed, no data point was excluded. STATISTICA 6.0 software (StatSoft, Inc., Tulsa, Okla.) was used to conduct all statistical analyses. The Tukey honestly significant difference (HSD) post-hoc test was used to compare specific data points. Bonferroni correction was applied for multiple comparisons. Two-tailed tests were performed, and data are expressed as mean±SEM; P<0.05 was considered significant in all tests.
# The sequence from the last 28 amino acids of the C-terminus of the Tmem100-3Q mutant protein was synthesized and myristoylated at its N-terminus (myr-[…]-COOH) (SEQ ID NO: 8) by Twentyfirst Century Biochemicals. […] For the calcium imaging assay, the peptides were added to the calcium imaging buffer with a final concentration of 200 nM and incubated for at least […] at room temperature. For the mice behavioral assays, the peptides (5 μL, 2 mM) were injected subcutaneously in the hindpaw at least 30 minutes before testing. For the rat behavior assays, human T100-3Q (h-T100), a palmitoylated cell permeable peptide mutated based on the C terminus of human sequence in Tmem100, was applied. The sequence is Palmitoyl-[…]-COOH (SEQ ID NO: 7).
# [5] = system: ongoing neuropathic pain in SNL rats; experiment: Conditioned place preference test for ongoing pain in SNL rats; type: in vivo, rat; conditions: intrathecal 50 μM, 10 μl; for conditioned place preference: time in drug-paired chamber, SNL rats: scramble peptide-paired chamber as comparison
# Source text: Ongoing, or spontaneous, pain, which is most bothersome to patients, is difficult to treat and difficult to study in animals. The conditioned place preference test has been successfully developed to reveal the presence of non-evoked, ongoing pain and pain relief based on the preference of an animal for the context paired with a pain-relief treatment. The conditioned place preference can also capture the aversive aspects of pain. Strikingly, many studies have shown that the rodent conditioned place preference test accurately reflects the effectiveness of human clinical treatments. Therefore, this test is a powerful approach to investigate the potential effectiveness of new treatments and mechanisms for relief of ongoing pain. Two previous studies have examined the role of TRPA1 in ongoing pain by the conditioned place preference test. […] Because the antagonists used in those studies (HC030031 and Chem5861528) target TRPA1 monomers, it is possible that T100-Mut can inhibit ongoing pain by modulating the TRPA1/V1 complex. This possibility was tested in rodents with SNL-induced ongoing pain using the conditioned place preference test. […] Systemic administration of gabapentin, an analgesic that is known to alleviate neuropathic pain, was used as a positive control (FIG. 16B).
# [6] = target: TRPV1-CFP; experiment: FRET with TIRF microscopy, COS-7 cells, Tmem100-3Q co-expressed
# [7] = target: TRPV1-CFP; experiment: FRET with TIRF microscopy, COS-7 cells, wild-type Tmem100 co-expressed
# [8] = target: T2, TRPA1 (endogenous, mouse DRG) (mouse, UniProt Q8BLA8 1-1125); experiment: co-immunoprecipitation from mouse DRG lysates
# T2 construct: whole, on cells
# T2 sequence (Q8BLA8 whole entry): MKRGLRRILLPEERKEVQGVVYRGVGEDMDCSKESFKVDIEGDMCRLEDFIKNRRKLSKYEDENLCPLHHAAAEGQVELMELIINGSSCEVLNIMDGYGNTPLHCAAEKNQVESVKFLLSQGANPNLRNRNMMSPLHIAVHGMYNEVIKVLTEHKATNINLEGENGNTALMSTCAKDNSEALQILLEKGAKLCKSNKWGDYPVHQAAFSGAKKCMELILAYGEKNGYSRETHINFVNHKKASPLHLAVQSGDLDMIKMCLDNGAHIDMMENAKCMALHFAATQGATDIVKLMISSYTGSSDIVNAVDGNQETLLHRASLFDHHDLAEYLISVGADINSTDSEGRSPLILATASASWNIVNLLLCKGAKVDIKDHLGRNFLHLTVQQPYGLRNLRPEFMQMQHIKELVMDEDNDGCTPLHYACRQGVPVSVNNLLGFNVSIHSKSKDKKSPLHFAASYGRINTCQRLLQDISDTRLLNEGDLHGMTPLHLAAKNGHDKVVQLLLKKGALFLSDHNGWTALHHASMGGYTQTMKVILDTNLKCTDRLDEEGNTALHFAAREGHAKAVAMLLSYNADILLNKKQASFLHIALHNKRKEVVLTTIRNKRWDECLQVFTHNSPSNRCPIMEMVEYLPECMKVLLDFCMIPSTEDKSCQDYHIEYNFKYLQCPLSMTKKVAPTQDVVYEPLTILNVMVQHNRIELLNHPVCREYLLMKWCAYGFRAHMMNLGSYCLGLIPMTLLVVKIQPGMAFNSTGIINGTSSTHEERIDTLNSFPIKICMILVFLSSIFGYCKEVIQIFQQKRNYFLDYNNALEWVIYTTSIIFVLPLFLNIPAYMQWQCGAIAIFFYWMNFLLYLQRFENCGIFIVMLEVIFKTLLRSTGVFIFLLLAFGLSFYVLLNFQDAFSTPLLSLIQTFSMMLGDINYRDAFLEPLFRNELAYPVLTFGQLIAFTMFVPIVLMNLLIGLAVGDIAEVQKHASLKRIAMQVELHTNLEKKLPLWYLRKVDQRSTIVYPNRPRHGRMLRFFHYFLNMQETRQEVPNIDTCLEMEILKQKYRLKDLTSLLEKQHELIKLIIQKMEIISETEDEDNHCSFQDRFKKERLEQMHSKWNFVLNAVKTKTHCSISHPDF
# Source text: (§1) All groups were transfected with TRPV1-CFP and TRPA1-YFP except for the Rho-pYC (as a positive control for maximal effects of the system) and M-V1 (negative control) groups, where Rho-pYC and membrane-tethered YFP+TRPV1-CFP, respectively, were transfected instead. FRET efficiencies were highest in Tmem100-3Q-transfected cells (A1-V1-3Q), followed by the empty vector-transfected groups (A1-V1), and were lowest in cells transfected with wild-type Tmem100 (A1-V1-WT). The statistic is one-way ANOVA (*$p<0.05$; $p<0.01$, *$p<0.001$). Data are presented as mean±SEM. FIG. 5F is a table showing a summary of the data from FIG. 5E.
# (§2) DRG from all levels or CHO cells transfected with Trpv1, Trpa1, and Tmem100-myc were used. Whole cell DRG or CHO cells lysates were generated 24 h after transfection, and Co-IP with either 1 µg myc antibody (EMD Millipore) or 1 µg TRPV1 antibody (Santa Cruz, R130) as described (Akopian et al., 2007) Immunoprecipitants and cell lysate aliquots were resolved by SDS-PAGE and immunoblotted with 1:1000 anti-TRPV1 antibody (Santa Cruz, R130), 1:500 anti-Tmem100 antibody, 1:1000 anti-TRPA1 (Novus), or 1:1000 anti-myc (EMD Millipore). Secondary antibodies for visualization included donkey anti-rabbit and anti-mouse HRP-conjugated antibodies (GE Biosciences). […]
# [9] = target: B2; experiment: co-immunoprecipitation from mouse DRG lysates
# Source text: as §1, §2
# [10] = target: T2, TRPA1 (endogenous, mouse DRG); experiment: co-IP with Tmem100 and TRPV1 antibodies, Western blot, mouse DRG lysates
# Source text: as §1, §2
molecule,measurement,setting,value
F2: shortened CPP consisting of the first 18 amino acids of the T100-Mut (SEQ ID NO: 17) (WKVRQRNKKVQQQESQTA; listed as Mus musculus),paclitaxel-induced mechanical hyperalgesia,[1],effective
same,SNL-induced mechanical hyperalgesia / allodynia in mice,[2],blocked
same,percentage of cells responsive to CA,[3],significantly reduced; also recorded: same inhibitory effects
Palmitoyl-WKVRQRSKKAQQQESQTALVANQRSLFA-COOH (Palmitoyl-WKVRQRSKKAQQQESQTALVANQRSLFA-OH; SMILES CCCCCCCCCCCCCCCC(=O)N[C@@H](Cc1c[nH]c2ccccc12)C(=O)N[C@@H](CCCCN)C(=O)N[C@H](C(=O)N[C@@H](CCCNC(=N)N)C(=O)N[C@@H](CCC(N)=O)C(=O)N[C@@H](CCCNC(=N)N)C(=O)N[C@@H](CO)C(=O)N[C@@H](CCCCN)C(=O)N[C@@H](CCCCN)C(=O)N[C@@H](C)C(=O)N[C@@H](CCC(N)=O)C(=O)N[C@@H](CCC(N)=O)C(=O)N[C@@H](CCC(N)=O)C(=O)N[C@@H](CCC(=O)O)C(=O)N[C@@H](CO)C(=O)N[C@@H](CCC(N)=O)C(=O)N[C@H](C(=O)N[C@@H](C)C(=O)N[C@@H](CC(C)C)C(=O)N[C@H](C(=O)N[C@@H](C)C(=O)N[C@@H](CC(N)=O)C(=O)N[C@@H](CCC(N)=O)C(=O)N[C@@H](CCCNC(=N)N)C(=O)N[C@@H](CO)C(=O)N[C@@H](CC(C)C)C(=O)N[C@@H](Cc1ccccc1)C(=O)N[C@@H](C)C(=O)O)C(C)C)[C@@H](C)O)C(C)C; listed as Homo sapiens) [h-T100],contralateral PWT after drug injection,[4],no significant change
same,ipsilateral paw withdrawal threshold (PWT) vs pre-drug,"[4]; h-T100 10-100 μM, HC-030031 10-200 μM, scrambled 100 μM",dose-dependently increased
same,"conditioned place preference: time in drug-paired chamber, SNL rats",[5]; listed as P2-Mut,increased
same,"conditioned place preference: time in drug-paired chamber, SNL rats",[5]; listed as human T100-Mut,induced robust the conditioned place preference
same,chamber preference in sham-operated rats,[5]; sham-operated,did not induce chamber preference
same,SNL-induced mechanical hyperalgesia / allodynia in mice,[2],alleviates
TRPA1-YFP (receptor),increase of the TRPA1-TRPV1 interaction (FRET efficiency) against cells expressing only TRPA1-V1,[6],43%
same,decrease of FRET efficiency against cells expressing only TRPA1-V1,[7],34%
B1,binding result,[8],binds
same,binding result,[9],binds
B2,binding result,[10],binds
